Experimental data as given in PMC12738788, “Structural snapshots of Pseudomonas aeruginosa LptB2FG and LptB2FGC reveal insights into lipopolysaccharide recognition and transport” (Nature Communications, 2025).
Several values for one entry are separate records, joined by “and”; a condition that tells them apart may be missing. Equal values may be shown once.

What was measured:
[1] = biological target: P. aeruginosa LptB with a C-terminal 6 x His-tag (P. aeruginosa); assay: native MS; complex co-expressed and purified by the His tag on LptB (IMAC, SEC), exchanged into 200 mM ammonium acetate + 0.04% (w/v) [G1]-OGD; negative polarity
[2] = biological target: P. aeruginosa LptB with a C-terminal 6 x His-tag (P. aeruginosa); assay: cryo-EM structure; LptB2FG/LptB2FGC co-expressed, co-purified and delipidated, reconstituted in MSP1D1 nanodiscs with E. coli total extract lipid; 20 mM Tris-HCl pH 7.5, 100 mM NaCl; substrate-free; three LptB2FG and two LptB2FGC conformations from one sample
[3] = biological target: P. aeruginosa LptB with a C-terminal 6 x His-tag (P. aeruginosa); assay: non-reducing SDS-PAGE; SDS-PAGE gel of the purified complex, run under non-reducing conditions
P. aeruginosa LptB2FG = assay: Native MS lipid binding to LptB2FG; design: species or system Pseudomonas aeruginosa; settings: for 1x lipid_Ratio / 2x lipid_Ratio / 3x lipid_Ratio / 4x lipid_Ratio / Apo_Ratio: 3 μM protein
Procedure: (§1) Purified LptB2FG(C) was buffer exchanged into MS Buffer (200 mM ammonium acetate + 0.04% (w/v) [G1]-OGD) using a centrifugal buffer exchange device (Micro Bio-Spin 6, Bio-Rad) as previously described. The freshly buffer-exchanged protein was kept on ice, with protein concentration measured as before. The protein samples were diluted as desired in 200 mM ammonium acetate buffer with detergent as necessary and loaded into a gold-coated capillary Clark borosilicate capillary (Harvard Apparatus) prepared in the laboratory. The experiments were performed using a Q Exactive UHMR Hybrid Quadrupole-Orbitrap mass spectrometer (Thermo Fisher Scientific). Typically, 2 μl of buffer-exchanged protein solution was electrosprayed in negative polarity from in-house prepared gold-coated borosilicate capillaries. The instrument parameters used for data collection were: capillary voltage 1.1 kV, S-lens RF 100%, quadrupole selection from 1000 to 20,000 m/z range, HCD collision energy 200–300 V, source fragmentation 0 V, in-source trapping 200–300 V in negative mode. The ion transfer optics was set as follows: injection flatapole − 5 V, inter-flatapole lens − 4 V, bent flatapole − 2 V, transfer multipole 0 V. The resolution of the instrument was 8750 at m/z = 200 (transient time of 64 ms), argon pressure in the HCD cell was maintained at approximately at 8 × 10^–10 mbar and source temperature was kept at 200 °C. The noise level was set at 3 rather than the default value of 4.64. Calibration of the instruments was performed using 10 mg/ml solution of caesium iodide in water. Where required, baseline subtraction was performed to achieve a better-quality mass spectrum. Data were analysed using the Xcalibur 3.0 (Thermo Scientific), NaViA[64], and UniDec (www.unidec.chem.ox.ac.uk)[65] software packages.
(§2) Lipid and nucleotide binding experiments were performed by diluting them in 200 mM ammonium acetate supplemented with 0.04% [G1]-OGD. Native MS experiments were performed at a total LptB2FG(C) protein concentration of 3 μM.
(§3) Peak intensities were extracted using UniDec, and the ratios of the intensity of the ligand bound peak versus the total intensity of all observed species were calculated. The apparent dissociation constant (KD) values for individual lipid-binding events to LptB2FG and LptB2FGC were calculated through a sequential lipid-binding model using a previously described Python script. When necessary, a Welch’s T-test was used to evaluate statistically significant differences and data were plotted using GraphPad Prism 8.0. Error bars in the plots indicate standard deviation, and all experiments were performed in triplicate (n = 3).

P. aeruginosa LptB2FGC [4] = assay: Native MS lipid binding to LptB2FGC; design: species or system Pseudomonas aeruginosa; settings: for 1x lipid_Ratio / 2x lipid_Ratio / 3x lipid_Ratio / 4x lipid_Ratio / Apo_Ratio: 3 μM protein
Procedure: as §1, §2, §3

P. aeruginosa LptB2FGC [5] = assay: Native MS: CDL added to LptB2FG(C):Re-LPS complex (competition); type: binding, Pseudomonas aeruginosa; settings: Re-LPS 1 uM + CDL 2.5 uM
Procedure: In particular, we chose 14:0 CDL to be consistent with the 14 carbon lipid tails of Re-LPS, and incubated this with the LptB2FG/LptB2FGC complex, we could observe ~ 50% of LptB2FGC bound to CDL at 2.5 μM concentration (Fig. 5b). Apparent KD calculation indicated a similar trend when comparing LptB2FG and LptB2FGC interaction with CDL to that of LPS (Supplementary Fig. S18). […] We set out to test whether CDL influences LPS binding to LptB2FGC. To this end, we added increasing concentrations of CDL (1.0 to 5 μM) to a solution containing LptB2FG(C):Re-LPS complex (Supplementary Fig. S19).
Purified LptB2FG(C) was buffer exchanged into MS Buffer (200 mM ammonium acetate + 0.04% (w/v) [G1]-OGD) using a centrifugal buffer exchange device (Micro Bio-Spin 6, Bio-Rad) as previously described. The freshly buffer-exchanged protein was kept on ice, with protein concentration measured as before. […] Data were analysed using the Xcalibur 3.0 (Thermo Scientific), NaViA[64], and UniDec (www.unidec.chem.ox.ac.uk)[65] software packages. […]
Peak intensities were extracted using UniDec, and the ratios of the intensity of the ligand bound peak versus the total intensity of all observed species were calculated. The apparent dissociation constant (KD) values for individual lipid-binding events to LptB2FG and LptB2FGC were calculated through a sequential lipid-binding model using a previously described Python script. […]

[6] = first lipid-binding event, sequential lipid-binding model, native MS, read-out: apparent dissociation constant KD(1)

P. aeruginosa LptB with a C-terminal 6 x His-tag (natural protein)
stoichiometry N [1]: 2
stoichiometry N [2]: 2
stoichiometry N [3]: 2

CCCCCCCCCCC[C@@H](O)CC(=O)N[C@H]1[C@H](OC[C@H]2O[C@H](OP(=O)(O)O)[C@H](NC(=O)C[C@H](O)CCCCCCCCCCC)[C@@H](OC(=O)C[C@H](O)CCCCCCCCCCC)[C@@H]2O)O[C@H](CO)[C@@H](OP(=O)(O)O)[C@@H]1OC(=O)C[C@H](O)CCCCCCCCCCC [lipid IVA]
apo fraction of LptB2FG (P. aeruginosa LptB2FG; pre-delipidation, ClearColi-expressed complex, lipid IVA sole LPS-related species): ~ 60%
lipid IVA occupancy of LptB2FGC (P. aeruginosa LptB2FGC [4]; pre-delipidation, ClearColi-expressed complex, with 2× adducts): ~ 80%

CCCCCCCCCCCCCC(=O)OC[C@H](COP(=O)(O)OCC(O)COP(=O)(O)OC[C@@H](COC(=O)CCCCCCCCCCCCC)OC(=O)CCCCCCCCCCCCC)OC(=O)CCCCCCCCCCCCC (stereo partly shown) [CDL, 1’,3’-bis[1,2-dimyristoyl-sn-glycero-3-phospho]-glycerol]
1x CDL (P. aeruginosa LptB2FGC [5]): 0.1327 and 0.2003 and 0.1609
2x CDL (P. aeruginosa LptB2FGC [5]): 0
1x lipid_Ratio (P. aeruginosa LptB2FG; 0.25 μM lipid): 0.1443 and 0.1705 and 0.1602
2x lipid_Ratio (P. aeruginosa LptB2FG; 0.25 μM lipid): 0
3x lipid_Ratio (P. aeruginosa LptB2FG; 0.25 μM lipid): 0
4x lipid_Ratio (P. aeruginosa LptB2FG; 0.25 μM lipid): 0
Apo_Ratio (P. aeruginosa LptB2FG; 0.25 μM lipid): 0.8557 and 0.8295 and 0.8398
1x lipid_Ratio (P. aeruginosa LptB2FG; 0.5 μM lipid): 0.199 and 0.1911 and 0.2318
2x lipid_Ratio (P. aeruginosa LptB2FG; 0.5 μM lipid): 0
3x lipid_Ratio (P. aeruginosa LptB2FG; 0.5 μM lipid): 0
4x lipid_Ratio (P. aeruginosa LptB2FG; 0.5 μM lipid): 0
Apo_Ratio (P. aeruginosa LptB2FG; 0.5 μM lipid): 0.801 and 0.8089 and 0.7682
1x lipid_Ratio (P. aeruginosa LptB2FG; 1 μM lipid): 0.2261 and 0.2185 and 0.1754
3x lipid_Ratio (P. aeruginosa LptB2FG; 1 μM lipid): 0
4x lipid_Ratio (P. aeruginosa LptB2FG; 1 μM lipid): 0
Apo_Ratio (P. aeruginosa LptB2FG; 1 μM lipid): 0.7468 and 0.7118 and 0.7769
1x lipid_Ratio (P. aeruginosa LptB2FG; 1.25 μM lipid): 0.2786 and 0.2616 and 0.2584
2x lipid_Ratio (P. aeruginosa LptB2FG; 1.25 μM lipid): 0.04833 and 0.04258 and 0.08199
3x lipid_Ratio (P. aeruginosa LptB2FG; 1.25 μM lipid): 0
4x lipid_Ratio (P. aeruginosa LptB2FG; 1.25 μM lipid): 0
Apo_Ratio (P. aeruginosa LptB2FG; 1.25 μM lipid): 0.6731 and 0.6958 and 0.6596
1x lipid_Ratio (P. aeruginosa LptB2FG; 2.5 μM lipid): 0.3458 and 0.3529 and 0.3561
2x lipid_Ratio (P. aeruginosa LptB2FG; 2.5 μM lipid): 0.07878 and 0.07812 and 0.08017
3x lipid_Ratio (P. aeruginosa LptB2FG; 2.5 μM lipid): 0
4x lipid_Ratio (P. aeruginosa LptB2FG; 2.5 μM lipid): 0
Apo_Ratio (P. aeruginosa LptB2FG; 2.5 μM lipid): 0.5754 and 0.569 and 0.5638
1x lipid_Ratio (P. aeruginosa LptB2FG; 5 μM lipid): 0.4041 and 0.3985 and 0.4061
2x lipid_Ratio (P. aeruginosa LptB2FG; 5 μM lipid): 0.2783 and 0.2976 and 0.263
3x lipid_Ratio (P. aeruginosa LptB2FG; 5 μM lipid): 0.07217 and 0.104 and 0.096
4x lipid_Ratio (P. aeruginosa LptB2FG; 5 μM lipid): 0
Apo_Ratio (P. aeruginosa LptB2FG; 5 μM lipid): 0.2455 and 0.1999 and 0.2349
Kd (P. aeruginosa LptB2FG; [6]): 4.8 ± 0.14 µM
1x lipid_Ratio (P. aeruginosa LptB2FGC [4]; 0.25 μM lipid): 0.1955 and 0.2067 and 0.2427
2x lipid_Ratio (P. aeruginosa LptB2FGC [4]; 0.25 μM lipid): 0
3x lipid_Ratio (P. aeruginosa LptB2FGC [4]; 0.25 μM lipid): 0
4x lipid_Ratio (P. aeruginosa LptB2FGC [4]; 0.25 μM lipid): 0
Apo_Ratio (P. aeruginosa LptB2FGC [4]; 0.25 μM lipid): 0.8045 and 0.7933 and 0.7573
1x lipid_Ratio (P. aeruginosa LptB2FGC [4]; 0.5 μM lipid): 0.236 and 0.2635 and 0.2763
2x lipid_Ratio (P. aeruginosa LptB2FGC [4]; 0.5 μM lipid): 0
3x lipid_Ratio (P. aeruginosa LptB2FGC [4]; 0.5 μM lipid): 0
4x lipid_Ratio (P. aeruginosa LptB2FGC [4]; 0.5 μM lipid): 0
Apo_Ratio (P. aeruginosa LptB2FGC [4]; 0.5 μM lipid): 0.764 and 0.7365 and 0.7237
1x lipid_Ratio (P. aeruginosa LptB2FGC [4]; 1 μM lipid): 0.2764 and 0.2872 and 0.3074
2x lipid_Ratio (P. aeruginosa LptB2FGC [4]; 1 μM lipid): 0.0846 and 0.07455 and 0.1186
3x lipid_Ratio (P. aeruginosa LptB2FGC [4]; 1 μM lipid): 0
4x lipid_Ratio (P. aeruginosa LptB2FGC [4]; 1 μM lipid): 0
Apo_Ratio (P. aeruginosa LptB2FGC [4]; 1 μM lipid): 0.639 and 0.6382 and 0.574
1x lipid_Ratio (P. aeruginosa LptB2FGC [4]; 1.25 μM lipid): 0.3498 and 0.3261 and 0.3766
3x lipid_Ratio (P. aeruginosa LptB2FGC [4]; 1.25 μM lipid): 0
4x lipid_Ratio (P. aeruginosa LptB2FGC [4]; 1.25 μM lipid): 0
Apo_Ratio (P. aeruginosa LptB2FGC [4]; 1.25 μM lipid): 0.545 and 0.5422 and 0.5586
1x lipid_Ratio (P. aeruginosa LptB2FGC [4]; 2.5 μM lipid): 0.3774 and 0.3613 and 0.3792
2x lipid_Ratio (P. aeruginosa LptB2FGC [4]; 2.5 μM lipid): 0.1928 and 0.1837 and 0.1898
3x lipid_Ratio (P. aeruginosa LptB2FGC [4]; 2.5 μM lipid): 0.07276 and 0.06329 and 0.08767
4x lipid_Ratio (P. aeruginosa LptB2FGC [4]; 2.5 μM lipid): 0
Apo_Ratio (P. aeruginosa LptB2FGC [4]; 2.5 μM lipid): 0.3571 and 0.3916 and 0.3434
1x lipid_Ratio (P. aeruginosa LptB2FGC [4]; 5 μM lipid): 0.2708 and 0.2286 and 0.261
2x lipid_Ratio (P. aeruginosa LptB2FGC [4]; 5 μM lipid): 0.3089 and 0.3049 and 0.3123
3x lipid_Ratio (P. aeruginosa LptB2FGC [4]; 5 μM lipid): 0.1993 and 0.2344 and 0.2124
4x lipid_Ratio (P. aeruginosa LptB2FGC [4]; 5 μM lipid): 0.08447 and 0.1259 and 0.09283
Apo_Ratio (P. aeruginosa LptB2FGC [4]; 5 μM lipid): 0.1365 and 0.1062 and 0.1214
Kd (P. aeruginosa LptB2FGC [4]; [6]): 3.07 ± 0.09 µM
